The test system of one data set is Aphis gossypii. Put plainly: Insecticidal activity against Aphis gossypii assessed as mortality at 12 ppm. The data set is classed as functional.
Another data set concerns A549. Put plainly: Cytotoxicity against human A549 cells. The settings on record: read-out: ED50 (the source's name). The data set is classed as functional.
The test system of a further data set is MCF7. Put plainly: Cytotoxicity against human MCF7 cells. The data set is classed as functional. The settings on record: read-out: ED50 (the source's name).
In a further data set the test system is Spodoptera eridania. Put plainly: Insecticidal activity against Spodoptera eridania assessed as mortality at 12 ppm. Type of data set: functional.
Another data set relates to Tetranychus urticae. Put plainly: Insecticidal activity against Tetranychus urticae assessed as mortality at 12 ppm. The data set is classed as functional.
The test system of data set [1] is Diabrotica undecimpunctata. Put plainly: Insecticidal activity against Diabrotica undecimpunctata assessed as mortality at 12 ppm. The data set is classed as functional.
The next data set relates to HT-29. Put plainly: Cytotoxicity against human HT-29 cells. The settings on record: read-out: ED50 (the source's name). Type of data set: functional.
In the next data set the test system is Artemia salina. Put plainly: Toxicity in Artemia salina. The data set is classed as organism-based. The settings on record: in vivo.
In data set [2] the test system is Agrobacterium tumefaciens. Put plainly: Antitumor activity against Agrobacterium tumefaciens-induced crown gall tumor in potato tubers at by potato disk assay. Type of data set: functional.

≈ marks a conversion by molar mass, not a printed value.

As for `C=C1OC(=O)/C(=C\CCCCCCCCCCCCC)[C@@H]1O` [OBTUSILACTONE A], the Activity (in the data set on Aphis gossypii; in the data set on Spodoptera eridania; in the data set on Tetranychus urticae; in data set [1]) was 0% in each case. The EC50 in the data set on A549 was greater than 10 µg/mL; in the data set on MCF7, 5.12 µg/mL (≈ 16.6 µM); with HT-29 it was 2.93 µg/mL (≈ 9.5 µM). Also, in the data set on Artemia salina, the LC50 is given as 0.89 ppm.

As for `C=CCCCCCCCCC/C=C1\C(=O)OC(=C)[C@H]1O` [OBTUSILACTONE], the Activity (in the data set with Aphis gossypii; with Spodoptera eridania; with Tetranychus urticae; in data set [1]) was 0% throughout. For the same compound, the EC50 was determined as 3.32 µg/mL (≈ 11.9 µM) in the data set on A549, 4.58 µg/mL (≈ 16.5 µM) with MCF7 and 3.26 µg/mL (≈ 11.7 µM) with HT-29. Besides, the “inhibition (INH)” value in data set [2] was 64.2%. In the data set on Artemia salina, this compound displayed an LC50 of 0.035 ppm.

`C=C1OC(=O)/C(=C/CCCC/C=C\CCCCCCCCC)[C@@H]1O` [ISOLINDERENOLIDE]: the Activity (with Aphis gossypii; in the data set on Spodoptera eridania; in the data set with Tetranychus urticae; in data set [1]) was 0% throughout. Besides, the EC50 with A549 is 3.01 µg/mL (≈ 9 µM); in the data set with MCF7 it was 2.58 µg/mL (≈ 7.71 µM); in the data set with HT-29, 1.9 µg/mL (≈ 5.68 µM). Also, in data set [2], the “inhibition (INH)” value was 41.4%. Moreover, the LC50 in the data set on Artemia salina was 0.52 ppm.

As for `CCCCC/C=C\C/C=C\CCCC(C)=O`, the EC50 with A549, in the data set with MCF7 and with HT-29 was greater than 10 µg/mL throughout. In the data set with Artemia salina, this compound registered an LC50 of 2.9 ppm.

Turning to `CC/C=C\C/C=C\C/C=C\CCCC(C)=O`, the EC50 with A549 is greater than 10 µg/mL; with MCF7 it was 5.15 µg/mL (≈ 23.4 µM); in the data set on HT-29, 3.01 µg/mL (≈ 13.7 µM). Moreover, the LC50 in the data set with Artemia salina amounted to 3 ppm.

For the compound `C=C1OC(=O)/C(=C\CCCCCCCCCCCCCCC)[C@@H]1O` [LINDERANOLIDE], the EC50 in the data set on A549 came out at 0.928 µg/mL (≈ 2.76 µM); in the data set on MCF7 it was 73.6 µg/mL (≈ 219 µM); in the data set with HT-29, 30.5 µg/mL (≈ 90.6 µM). In the data set on Artemia salina, this compound displayed a median lethal concentration (LC50) of 5.23 ppm.

For `C=CCCCCCCCCC/C=C1/C(=O)OC(=C)[C@H]1O` [ISOOBUTASILACTONE], the Activity (in the data set with Aphis gossypii; with Spodoptera eridania; with Tetranychus urticae; in [1]) was 0% throughout. The EC50 is greater than 10 µg/mL in the data set on A549, 4.6 µg/mL (≈ 16.5 µM) in the data set with MCF7 and 2.92 µg/mL (≈ 10.5 µM) in the data set on HT-29. Moreover, in the data set with Artemia salina, the LC50 came to 0.065 ppm.

In the case of `C=C1OC(=O)/C(=C/CCCCCCCCCCCCCCC)[C@@H]1O` [ISOLINDERANOLIDE], the Activity in the data set on Aphis gossypii was 0%; in the data set on Spodoptera eridania, 0%; in the data set with Tetranychus urticae, 0%; in [1] it was 20%. Besides, the EC50 in the data set with A549 worked out at 4.57 µg/mL (≈ 13.6 µM); in the data set on MCF7, 3.12 µg/mL (≈ 9.27 µM); in the data set on HT-29, 3.07 µg/mL (≈ 9.12 µM). Besides, in data set [2], the “inhibition (INH)” value was found to be 44.9%. This compound had an LC50 in the data set with Artemia salina of 0.96 ppm.

Regarding `C=C1OC(=O)/C(=C/CCCCCCCCCCCCC)[C@@H]1O` [ISOOBTUSILACTONE A], the Activity (in the data set on Aphis gossypii; with Spodoptera eridania; with Tetranychus urticae; in [1]) was 0% throughout. Further, the figures for the EC50 in the data set with A549, in the data set with MCF7 and in the data set with HT-29 were 3.75 µg/mL (≈ 12.2 µM), 2.31 µg/mL (≈ 7.49 µM) and 2.48 µg/mL (≈ 8.04 µM), respectively. Moreover, the LC50 with Artemia salina is on record as 0.72 ppm.

On to `C=C[C@](C)(O)CC/C=C(/C)CCC=C(C)C`, for which the EC50 with A549, in the data set on MCF7 and in the data set on HT-29 was greater than 10 µg/mL throughout. The same compound yielded an LC50 in the data set with Artemia salina of 5.75 ppm.

Turning to `COc1cccc2c1C(=O)c1c(O)c3c(c(O)c1C2=O)C[C@@](O)(C(=O)CO)C[C@@H]3O[C@H]1C[C@H](N)[C@H](O)[C@H](C)O1` [DOXORUBICIN], the EC50 in the data set on A549 worked out at 0.0018 µg/mL (≈ 0.00331 µM); with MCF7 it was 0.051 µg/mL (≈ 0.0938 µM); with HT-29, 0.012 µg/mL (≈ 0.0221 µM). Also, in the data set with Artemia salina, the LC50 is recorded as 0.088 ppm.

In general, LC50 refers to the concentration that kills 50% of the test population. A higher LC50 goes with a less lethal substance.

The values are drawn from ChEMBL document CHEMBL1158999, “Biologically active gamma-lactones and methylketoalkenes from Lindera benzoin” (J Nat Prod, 1992).
